Two molecules from patent US20150165033A1, “COMPOSITION FOR NASAL APPLICATION” (BBU-VITA CORP., priority 2012, published 2015) can be followed below.

In assay [1] the test system is catalepsy caused by a single intraperitoneal injection of haloperidol. Kind of assay: Spontaneous motor activity in the test "Open Field", catalepsy caused by haloperidol. It counts as in vivo. As to conditions: sum of movements in Open Field; haloperidol 0.25 mg/kg i.p. alone; male rats. As to the method:
The restoration of spontaneous motor activity in rats as the sum of the movements in the test “Open Field” in the experimental model of a catalepsy caused by a single intraperitoneal (i.p.) injection of haloperidol (0.25 mg/kg, “Ratiopharm,” Germany). Dopamine (0.125 mg/kg, Polfa S.A. (Poland) was administered nasally in 50 μl in the solution of the spray once in each nostril in combination with the oxygen anion radicals (SAR) and/or the active substances of the nitrogen oxide according to the present invention (Group IV, “Composition 1”). The experiments were performed on non-purebred male rats having a body mass of 250±37 g.

For another assay, the system named is duration of sleep. Kind of assay: Narcotic action of phenobarbital, duration of sleep. It counts as in vivo. As to conditions: phenobarbital control 150 mg/kg. From the text: The enhancement of the narcotic effect of the barbiturate phenobarbital in “Composition 3,” administered nasally.

`O=C(CCCN1CCC(O)(c2ccc(Cl)cc2)CC1)c1ccc(F)cc1` [Haloperidol, haloperidol]: the “Spontaneous Activity” value in assay [1] stood at 3.6 ± 3.4.
In the case of `CCC1(c2ccccc2)C(=O)NC(=O)NC1=O` [Phenobarbital, phenobarbital], the “Duration of sleep” value in the assay with duration of sleep was found to be 192 ± 29.9 min.
